Values of other authors, collected in patent US5210089A, “D-rhamnono-1,5-lactone” (Monsanto Company, priority 1992, dated 1993).

Legend:
Conditions in all cases: literature; cited from earlier work
Lysosomal α-mannosidase = molecular target: T1, Lysosomal α-mannosidase (Homo sapiens, UniProt O00754)
T1 sequence (O00754 50-1011): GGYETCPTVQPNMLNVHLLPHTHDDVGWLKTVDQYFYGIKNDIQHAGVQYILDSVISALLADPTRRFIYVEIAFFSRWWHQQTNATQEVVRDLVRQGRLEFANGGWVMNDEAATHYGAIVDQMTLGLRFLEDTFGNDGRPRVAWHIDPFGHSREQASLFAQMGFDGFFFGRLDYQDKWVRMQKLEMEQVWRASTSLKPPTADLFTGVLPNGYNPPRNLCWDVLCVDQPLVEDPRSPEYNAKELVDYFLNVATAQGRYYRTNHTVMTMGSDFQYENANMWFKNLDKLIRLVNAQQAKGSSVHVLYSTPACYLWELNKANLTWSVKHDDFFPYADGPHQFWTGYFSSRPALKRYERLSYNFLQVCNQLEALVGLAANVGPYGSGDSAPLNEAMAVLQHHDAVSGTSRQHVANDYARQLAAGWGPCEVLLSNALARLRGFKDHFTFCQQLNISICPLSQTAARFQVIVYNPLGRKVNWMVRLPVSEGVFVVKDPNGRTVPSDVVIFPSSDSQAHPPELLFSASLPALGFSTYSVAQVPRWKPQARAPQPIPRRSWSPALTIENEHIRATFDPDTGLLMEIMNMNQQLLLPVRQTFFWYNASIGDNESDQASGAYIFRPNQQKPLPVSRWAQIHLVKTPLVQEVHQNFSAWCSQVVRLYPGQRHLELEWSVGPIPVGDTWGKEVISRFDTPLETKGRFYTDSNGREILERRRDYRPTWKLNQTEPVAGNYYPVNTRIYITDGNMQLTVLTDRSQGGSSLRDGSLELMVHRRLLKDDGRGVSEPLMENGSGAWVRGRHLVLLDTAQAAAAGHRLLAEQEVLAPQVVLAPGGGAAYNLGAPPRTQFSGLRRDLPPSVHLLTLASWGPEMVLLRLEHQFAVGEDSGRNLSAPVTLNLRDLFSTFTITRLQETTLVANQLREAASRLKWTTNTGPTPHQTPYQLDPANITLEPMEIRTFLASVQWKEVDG

[1] = system: rat epidodymal α-mannosidases
apricot β-glucosidase = system: apricot β-glucosidase

O=C1N[C@H](CO)[C@@H](O)[C@H](O)[C@@H]1O [Mannono-1,5-lactam (2), D-mannonolactam]
powerful inhibitor: Inhibition of human lysosomal α-mannosidase (in words) (Lysosomal α-mannosidase) | Inhibition of rat epididymal α-mannosidase (in words) [1] | Inhibition of apricot β-glucosidase (in words) (apricot β-glucosidase)
